This is an account of results in ChEMBL document CHEMBL1782016, “Improvement in aqueous solubility in small molecule drug discovery programs by disruption of molecular planarity and symmetry” (J Med Chem, 2011).

The target of data set [1] is T1, Integrin alpha-V/beta-3 (Homo sapiens, UniProt P05106+P06756). The data set is described as follows: Antagonist activity at alphavbeta3 integrin receptor human VSMC assessed as inhibition of vitronectin-induced cell adhesion. In kind it is functional, cell-based.
Data set [2] deals with Integrin alpha-IIb/beta-3 (Homo sapiens, UniProt P05106+P08514). The data set is described as follows: Antagonist activity at alpha2bbeta3 integrin receptor. In kind it is functional.
Data set [3] can be described thus: Antiplatelet activity in human platelet rich plasma assessed as inhibition of platelet aggregation. It is filed as functional.
A short description of data set [4]: Aqueous solubility of the compound in water.
In data set [5] the target is T2, Peroxisome proliferator-activated receptor alpha (Homo sapiens) (UniProt Q07869).
T2 sequence (whole entry): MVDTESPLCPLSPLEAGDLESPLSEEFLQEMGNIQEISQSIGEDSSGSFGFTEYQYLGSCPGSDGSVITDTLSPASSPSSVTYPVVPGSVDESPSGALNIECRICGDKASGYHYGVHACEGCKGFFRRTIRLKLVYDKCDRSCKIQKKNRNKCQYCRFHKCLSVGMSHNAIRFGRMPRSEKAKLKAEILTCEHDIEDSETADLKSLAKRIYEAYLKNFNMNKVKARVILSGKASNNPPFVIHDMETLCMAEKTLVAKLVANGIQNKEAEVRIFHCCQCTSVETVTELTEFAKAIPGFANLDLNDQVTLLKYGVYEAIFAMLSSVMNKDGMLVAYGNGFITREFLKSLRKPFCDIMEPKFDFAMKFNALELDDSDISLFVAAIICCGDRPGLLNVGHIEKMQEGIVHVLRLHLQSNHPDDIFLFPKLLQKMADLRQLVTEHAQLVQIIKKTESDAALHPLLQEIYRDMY
Briefly: Agonist activity at PPARalpha at 1 uM. It is filed as functional.

Data set [6] has as its target T1, Integrin alpha-V/beta-3. Briefly: Antagonist activity at alphavbeta3 integrin receptor. In kind it is functional.
In data set [7] the target is Macrophage metalloelastase (Homo sapiens, UniProt P39900). The data set is described as follows: Inhibition of MMP12.
A short description of data set [8]: Aqueous solubility of the compound. To be noted: buffer. In kind it is physicochemical.
A short description of data set [9]: Inhibition of Escherichia coli H560 DNA gyrase mediated DNA cleavage.
Data set [10] in a line: Aqueous solubility of the compound at pH 7.4. To be noted: buffer. It is filed as physicochemical.
Data set [11] in a line: Oral bioavailability in rat. To be noted: in vivo.

In brackets after ≈: the same amount, converted by molar mass. Activity calls are given as the source filed them. The rule behind the calls is not given here. A value given as a limit tells only on which side of the number the result lay.

T1 sequence (P05106 27-788 limits assumed): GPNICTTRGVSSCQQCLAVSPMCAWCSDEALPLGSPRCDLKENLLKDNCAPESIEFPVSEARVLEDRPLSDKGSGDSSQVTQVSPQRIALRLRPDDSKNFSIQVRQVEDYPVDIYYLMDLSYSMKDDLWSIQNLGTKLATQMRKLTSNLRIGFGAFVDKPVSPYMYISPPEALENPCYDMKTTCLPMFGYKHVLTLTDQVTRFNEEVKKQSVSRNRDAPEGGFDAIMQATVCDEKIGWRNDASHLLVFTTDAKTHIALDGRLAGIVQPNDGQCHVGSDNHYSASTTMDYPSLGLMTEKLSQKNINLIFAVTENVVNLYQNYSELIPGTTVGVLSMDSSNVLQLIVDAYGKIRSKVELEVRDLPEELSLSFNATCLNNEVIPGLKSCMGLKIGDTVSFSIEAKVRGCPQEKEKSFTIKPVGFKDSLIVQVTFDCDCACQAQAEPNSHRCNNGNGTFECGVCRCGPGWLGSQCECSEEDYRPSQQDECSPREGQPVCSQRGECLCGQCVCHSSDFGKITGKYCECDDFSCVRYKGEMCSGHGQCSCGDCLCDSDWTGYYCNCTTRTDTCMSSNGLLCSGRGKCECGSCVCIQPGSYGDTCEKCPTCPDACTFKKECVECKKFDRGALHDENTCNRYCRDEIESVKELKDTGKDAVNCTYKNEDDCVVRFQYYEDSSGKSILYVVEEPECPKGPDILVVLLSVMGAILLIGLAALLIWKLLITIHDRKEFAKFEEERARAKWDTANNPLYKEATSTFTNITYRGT
T1 sequence (P06756 31-889 limits assumed): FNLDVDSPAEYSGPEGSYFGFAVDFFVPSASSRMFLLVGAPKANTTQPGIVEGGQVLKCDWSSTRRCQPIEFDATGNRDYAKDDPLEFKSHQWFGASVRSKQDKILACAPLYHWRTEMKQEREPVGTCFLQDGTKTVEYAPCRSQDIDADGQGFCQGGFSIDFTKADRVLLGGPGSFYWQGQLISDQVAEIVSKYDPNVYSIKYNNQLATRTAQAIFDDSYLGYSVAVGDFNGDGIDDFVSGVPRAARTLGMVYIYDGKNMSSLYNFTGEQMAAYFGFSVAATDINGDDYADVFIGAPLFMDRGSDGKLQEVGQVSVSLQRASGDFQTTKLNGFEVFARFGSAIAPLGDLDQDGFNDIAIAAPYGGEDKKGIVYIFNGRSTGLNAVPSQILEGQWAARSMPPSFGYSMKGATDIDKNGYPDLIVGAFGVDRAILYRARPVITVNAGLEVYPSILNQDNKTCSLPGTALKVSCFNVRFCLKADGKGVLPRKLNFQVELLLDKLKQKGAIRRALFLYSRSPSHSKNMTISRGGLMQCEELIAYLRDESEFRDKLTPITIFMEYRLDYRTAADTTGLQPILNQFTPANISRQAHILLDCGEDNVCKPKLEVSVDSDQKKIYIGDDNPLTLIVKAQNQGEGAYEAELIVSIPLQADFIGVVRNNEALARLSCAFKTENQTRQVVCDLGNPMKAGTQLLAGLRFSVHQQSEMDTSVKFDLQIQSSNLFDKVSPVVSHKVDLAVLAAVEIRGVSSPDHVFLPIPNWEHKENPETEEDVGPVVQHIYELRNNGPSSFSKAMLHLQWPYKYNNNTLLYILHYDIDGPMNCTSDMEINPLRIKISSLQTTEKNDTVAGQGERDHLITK
T1 sequence (P06756 891-1048 limits assumed): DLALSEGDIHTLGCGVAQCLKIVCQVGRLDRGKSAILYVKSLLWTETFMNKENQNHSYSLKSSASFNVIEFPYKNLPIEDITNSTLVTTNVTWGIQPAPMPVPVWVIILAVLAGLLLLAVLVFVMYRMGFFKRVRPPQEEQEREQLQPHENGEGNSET
Chain of Integrin alpha-IIb/beta-3 (P05106 27-788 limits assumed): as the sequence (P05106 27-788 limits assumed) above
Chain of Integrin alpha-IIb/beta-3 (P08514 32-887 limits assumed): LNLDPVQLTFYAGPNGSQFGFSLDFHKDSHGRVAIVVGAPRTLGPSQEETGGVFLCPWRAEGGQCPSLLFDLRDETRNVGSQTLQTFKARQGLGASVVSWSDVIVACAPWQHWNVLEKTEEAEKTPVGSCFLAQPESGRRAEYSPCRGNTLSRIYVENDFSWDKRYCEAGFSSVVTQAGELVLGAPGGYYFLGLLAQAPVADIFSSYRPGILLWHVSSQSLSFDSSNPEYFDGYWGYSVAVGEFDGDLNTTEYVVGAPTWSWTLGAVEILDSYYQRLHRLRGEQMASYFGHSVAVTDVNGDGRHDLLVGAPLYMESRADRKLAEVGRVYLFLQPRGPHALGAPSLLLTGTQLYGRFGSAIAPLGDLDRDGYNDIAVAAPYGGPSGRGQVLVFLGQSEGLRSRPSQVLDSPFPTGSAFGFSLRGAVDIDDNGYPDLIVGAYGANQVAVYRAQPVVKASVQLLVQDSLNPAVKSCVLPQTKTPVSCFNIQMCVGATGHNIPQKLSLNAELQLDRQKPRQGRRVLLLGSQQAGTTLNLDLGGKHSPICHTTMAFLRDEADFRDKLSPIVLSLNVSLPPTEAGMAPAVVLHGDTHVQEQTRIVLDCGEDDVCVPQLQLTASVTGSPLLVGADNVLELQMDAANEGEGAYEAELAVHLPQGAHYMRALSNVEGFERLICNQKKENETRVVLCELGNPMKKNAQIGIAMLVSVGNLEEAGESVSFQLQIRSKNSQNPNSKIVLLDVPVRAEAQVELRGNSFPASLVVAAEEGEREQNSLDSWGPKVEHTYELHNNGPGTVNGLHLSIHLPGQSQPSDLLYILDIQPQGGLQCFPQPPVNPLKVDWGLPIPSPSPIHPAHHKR
Chain of Integrin alpha-IIb/beta-3 (P08514 891-1039 limits assumed): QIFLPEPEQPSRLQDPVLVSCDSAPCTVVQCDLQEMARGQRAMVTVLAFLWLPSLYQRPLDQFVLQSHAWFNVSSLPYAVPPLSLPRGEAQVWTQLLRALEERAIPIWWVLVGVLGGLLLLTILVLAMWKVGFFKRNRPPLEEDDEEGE
Chain of Macrophage metalloelastase (P39900 whole entry): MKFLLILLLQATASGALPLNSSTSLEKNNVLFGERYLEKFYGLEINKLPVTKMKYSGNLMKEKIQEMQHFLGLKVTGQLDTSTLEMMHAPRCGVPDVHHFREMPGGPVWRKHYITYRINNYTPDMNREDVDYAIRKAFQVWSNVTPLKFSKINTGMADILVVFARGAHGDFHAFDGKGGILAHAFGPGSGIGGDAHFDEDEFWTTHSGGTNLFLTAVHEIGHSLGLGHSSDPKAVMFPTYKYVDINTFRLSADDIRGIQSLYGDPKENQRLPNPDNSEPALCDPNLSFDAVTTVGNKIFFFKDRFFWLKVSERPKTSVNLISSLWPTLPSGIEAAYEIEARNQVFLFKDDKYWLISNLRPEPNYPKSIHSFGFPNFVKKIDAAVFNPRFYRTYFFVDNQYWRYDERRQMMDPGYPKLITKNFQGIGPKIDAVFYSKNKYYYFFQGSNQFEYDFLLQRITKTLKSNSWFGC

`COc1cc(C(=O)NC[C@H](NS(=O)(=O)c2ccccc2)C(=O)O)ccc1N1CCC(NC2=NCCCN2)CC1`: the values for the half-inhibitory concentration (IC50) in data set [1], in data set [2] and in [3] were 110 nM, 0.44 nM and 130 nM, respectively.

As for `Clc1ccc(-c2ccccc2Cl)cc1`, in data set [4] (water), the solubility worked out at 637 µg/mL (≈ 2860 µM).

With `CCCCOc1ccc(-c2ccc(C(=O)O)cc2)cc1CNC(=O)c1ccc(C(F)(F)F)cc1F`, in [5], the outcome was inactive.

Regarding `O=C(NC[C@H](NS(=O)(=O)c1ccccc1)C(=O)O)c1ccc(N2CCC(NC3=NCCCN3)CC2)cc1`, the 50% inhibitory concentration (IC50) in data set [1] stood at 190 nM; in data set [2], 3 nM; in data set [6] it was 1.3 nM; in [3], 290 nM. The solubility in data set [4] (water) was below 100 µg/mL.

As for `O=C(O)Cc1ccc(CNC(=O)c2cc(-c3ccc(-c4ccccc4)cc3)cs2)cc1`, half-maximal inhibition in data set [7] (IC50) required 70 nM. In data set [8], this compound had a solubility below 1 µg/mL.

Turning to `O=C(NC[C@H](NS(=O)(=O)c1ccccc1)C(=O)O)c1ccc(N2CCC(NC3=NCCCN3)CC2)c(Cl)c1`, the half-maximal inhibitory concentration (IC50) in [1] came to 72 nM; in data set [2], 0.023 nM; in data set [6] it was 0.17 nM; in data set [3], 90 nM.

Turning to `O=C(O)Cc1ccc(CNC(=O)c2cc(-c3ccc(-c4ccccc4O)cc3)cs2)cc1`, in [7], inhibition was half-maximal at 90 nM (IC50). The compound also registered a solubility in data set [8] of 134 µg/mL (≈ 302 µM).

Consider `CCCCOc1ccc(-c2c(F)ccc(C(=O)O)c2F)cc1CNC(=O)c1ccc(C(F)(F)F)cc1F`, for which the outcome in data set [5] was inactive.

As to `O=C(O)c1ccc(S(=O)(=O)N[C@@H](CNC(=O)c2ccc(N3CCC(NC4=NCCCN4)CC3)c(F)c2)C(=O)O)cc1`, the concentration for half-maximal inhibition (IC50) in [1] worked out at 660 nM; in [2], 1.2 nM; in data set [6], 0.77 nM; in data set [3] it was 930 nM.

As to `O=C(NC[C@H](NS(=O)(=O)c1ccc(O)cc1)C(=O)O)c1ccc(N2CCC(NC3=NCCCN3)CC2)c(F)c1`, the half-inhibitory concentration (IC50) was 53 nM in [1], 0.18 nM in [2], 0.14 nM in data set [6] and 230 nM in [3]. This compound also yielded a solubility in data set [4] (water) of 100 µg/mL (≈ 178 µM).

Turning to `O=C(NC[C@H](NS(=O)(=O)c1ccc(O)cc1)C(=O)O)c1ccc(N2CCC(NC3=NCCCN3)CC2)c(O)c1`, the IC50 in data set [1] stood at 390 nM; in data set [2], 0.94 nM; in [6] it was 0.3 nM; in data set [3], 510 nM.

Take `Cc1c(N2CC[C@H](N)C2)c(F)cn2c(=O)c(C(=O)O)cc(C3CC3)c12` [ABT-719]: in data set [9], the IC50 is 0.03 µg/mL (≈ 0.0869 µM).

Take `O=C(NC[C@H](NS(=O)(=O)c1cccs1)C(=O)O)c1ccc(N2CCC[C@H](NC3=NCCCN3)C2)cc1`: the IC50 in data set [1] was determined as 52 nM; in [2], 0.4 nM; in data set [6] it was 0.25 nM; in [3] it was 99 nM. In addition, the solubility in data set [4] (water) amounted to 3300 µg/mL (≈ 6170 µM).

On to `CCCCOc1ccc(-c2ccc(C(=O)O)cc2C)cc1CNC(=O)c1ccc(C(F)(F)F)cc1F`, for which, in data set [5], the outcome was inactive.

As to `O=C(NC[C@H](NS(=O)(=O)c1ccccc1)C(=O)O)c1ccc(N2CCC(NC3=NCCCN3)CC2)c(O)c1`, the half-maximal inhibitory concentration (IC50) in data set [1] came out at 530 nM; in data set [2] it was 0.98 nM; in data set [6], 0.44 nM; in data set [3], 170 nM.

For `CCCCOc1ccc(-c2ccc(C(=O)O)cc2F)cc1CNC(=O)c1ccc(C(F)(F)F)cc1F`, in [5], the outcome was inactive.

Regarding `O=C(NC[C@H](NS(=O)(=O)c1ccccc1)C(=O)O)c1ccc(N2CCC[C@H](NC3=NCCCN3)C2)cc1F`, the IC50 in data set [1] is 16 nM; in [2], 0.78 nM; in [6] it was 0.23 nM; in data set [3], 290 nM. Besides, the concentration in solution in [4] (water) (solubility) was 2800 µg/mL (≈ 5120 µM).

Take `CC(c1ccncc1)n1[nH]c(=O)c2[nH]c3cc(Cl)ccc3c(=O)c2c1=O.CS(=O)(=O)O` (stereo not drawn): the solubility in [10] was above 290 µg/mL.

As for `O=C(NC[C@H](NS(=O)(=O)c1ccccc1)C(=O)O)c1ccc(N2CCC[C@H](N=C3NCCCN3)C2)cc1`, the IC50 in data set [1] stood at 31 nM; in [2] it was 0.56 nM; in [6], 0.48 nM; in [3] it was 83 nM. In data set [4] (buffer), this compound showed a solubility of 3500 µg/mL (≈ 6620 µM).

For `O=C(NC[C@H](NS(=O)(=O)c1ccccc1)C(=O)O)c1ccc(N2CCC(NC3=NCCCN3)CC2)c(F)c1`, the IC50 in [1] amounted to 48 nM; in data set [2], 0.21 nM; in data set [6], 0.36 nM; in data set [3], 37 nM. The compound also gave a solubility in [4] (buffer) of 600 µg/mL (≈ 1100 µM).

In [9], `O=C(O)c1cc(C2CC2)c2cc(N3CCNCC3)c(F)cn2c1=O` showed a 50% inhibitory concentration (IC50) of 0.15 µg/mL (≈ 0.453 µM).

Consider `CS(=O)(=O)O.O=c1c2ccc(Cl)cc2[nH]c2c(O)nn(Cc3ccncc3)c(=O)c12`, for which the bioavailability in [11] amounted to 5%.

In [8], `O=c1cc(-c2ccccc2)oc2ccc3ccccc3c12` [BETA-NAPHTHOFLAVONE] came in with a solubility below 0.15 µg/mL.
